Reference: patent US9192559B2, “Compositions” (Givaudan SA, priority 2006, dated 2015)

Columns and labels:
A. niger spores = assay: Activity against A. niger spores in skin cream Cremor basalis; format: cell-based, Aspergillus niger
Protocol: (§1) A preservative-free oil-in-water emulsion skin cream is used. Test samples of cream are made up to contain different amounts of diol compounds and/or benzaldehyde derivatives. The diol compound and the benzaldehyde derivatives is added to an aliquot of 10 g of the cream in 50 ml tubes in a concentration as shown in the table below. After addition of the preservative/preservative enhancer, the cream is thoroughly mixed to achieve a homogeneous distribution. The cream is then stored for 1-3 days to equilibrate at room temperature (in order to achieve a homogenous partitioning of compounds between oil and water phase).
(§2) For testing of sporicidal effect, to each sample 100 μl of a spore suspension of Aspergillus niger ATCC 16404 containing 3×10^7 spores/ml (prepared as described in example 1) is added.
(§3) After regular test intervals, samples of 1 g cream are removed and added to 20 ml of a neutralizer solution containing 0.2% lecithin, 2% Tween 80 and 0.5% NaCl. These dilutions are vigorously shaken for 10 min until the cream is dissolved, and then aliquots of this solution are spread plated on potato dextrose agar containing 0.2% Tween 80. After 48 h to 72 h the number of surviving colony forming units (and therefore surviving spores) are counted.
The example is performed as described in example 2 except for the following changes:
The preservative-free cosmetic cream for application to the human skin is Cremor basalis (commercially available from Fagron GmbH, Barsbüttel, Germany).

[1] = system: Aspergillus niger ATCC 16404 spores; assay: Sporicidal activity in a preservative-free oil-in-water emulsion skin cream; format: cell-based; details: 0.1% 4-hydroxybenzaldehyde, 0% diol, listed as benzaldehyde derivative
Protocol: as §1, §2, §3
The count of the negative control is divided by the count of the probe and thereby the reduction factor is determined.

[2] = system: Aspergillus niger ATCC 16404 spores; assay: Sporicidal effect of test compounds in water; format: cell-based; details: 0.1% test compound in water; for Sporicidal effect (reduction of spore counts), in words: 7 days
Protocol: Aspergillus niger ATCC 16404 spores are added to water to obtain a density of 3×10^5 spores/ml.
In order to prepare the spores, the test strain is grown for 5 days on potato dextrose agar at room temperature. The spores are harvested with a solution containing 0.1% Tween 80, peptone 0.1% and NaCl 0.85% and the spore concentration is adjusted to the density indicated above.
Test compounds are dissolved in dipropyleneglycol to a concentration of 20%.
These stock solutions are added to 10 ml aliquots of the spore suspension to obtain a final concentration of the test compounds of 0.1%. The sporicidal effect is shown by a reduction of spore counts after 7 days.
The reduction factor is determined as follows. Aliquots of the above prepared suspension of microorganisms (here: spore suspension prepared as described above) are plated on a suitable agar medium (see above) and the developing colonies are counted both for samples with test compound and for a negative probe (water). The count of the negative control is divided by the count of the test compound and thereby the reduction factor is determined. A negative control (water) accordingly has a reduction factor of 1 (no effect on the microorganism).

CCCCCCC(O)CO (centres unmarked) [1,2-Octandiol, 1,2-octanediol]
Reduction factor fungal spores, 7d (A. niger spores; preservative 0.25%, no 4-HBA): 2.2

CC(CO)CO [2-Methyl-1,3-propandiol, 2-Methyl-1,3-propanediol]
Reduction factor fungal spores, 7d (A. niger spores; preservative 2%, no 4-HBA): 3.3
Reduction factor fungal spores, 7d (A. niger spores; preservative 4%, no 4-HBA): 25.9

CCCCC(CC)COCC(O)CO (centres unmarked) [3-(2-ethyl-hexyloxy)-1,2-propandiol, 3-(2-ethylhexyloxy)propane-1,2-diol]
Reduction factor fungal spores, 7d (A. niger spores; preservative 0.25%, no 4-HBA): 3.9
Reduction factor fungal spores, 7d (A. niger spores; preservative 0.5%, no 4-HBA): 57.6

O=Cc1ccc(O)cc1 [4-hydroxybenzaldehyde]
reduction factor 7d fungal spores [1]: no sporicidal effect
Sporicidal effect (reduction of spore counts), in words [2]: No significant reduction of spore counts
Reduction factor fungal spores, 7d (A. niger spores; 0.5% 4-hydroxybenzaldehyde on its own): 57.6
Reduction factor fungal spores, 7d (A. niger spores; no added diol, 0.125% 4-HBA): 5.5

COc1ccc(C=O)cc1 [4-methoxy-benzaldehyde]
Sporicidal effect (reduction of spore counts), in words [2]: No significant reduction of spore counts

C=CCCCCCCCCO [9-decenol]
Sporicidal effect (reduction of spore counts), in words [2]: significant sporicidal effect

CC(C)c1ccc(CO)cc1 [Cuminic alcohol]
Spores/ml ([2]; after 7 days): >1.2 × 10^5 Spores/ml
Reduction factor ([2]; after 7 days, count of negative control / count of test compound): <2

CC(CC=O)CCc1ccccc1 (centres unmarked) [Mefranal, 3-methyl-5-phenylpentanal]
Sporicidal effect (reduction of spore counts), in words [2]: significant sporicidal effect
